Data from patent publication US20230096103A1, “BERBERINE COMPOUNDS, BERBERINE COMPOSITIONS, AND METHODS FOR ADMINISTRATION THEREOF” (Dignity Health, priority 2020, published 2023).

Assays:
human α4β2-nAChR [1] = target: T1, human α4β2-nAChR (Homo sapiens, UniProt P17787+P43681); experiment: Whole-cell patch-clamp of human α4β2-nAChR-mediated currents in transfected SH-EP1 cells; type: cell-based; settings: for ACh-induced currents, peak current component / ACh-induced currents, steady-state component: 30 μM co-applied with 1 mM ACh; for 1 mM ACh-induced whole-cell currents: 1 min pretreatment
T1 construct: expressed in transfected cells; host or cells: human SH-EP1 cell line
Method: The effects of THPBs on α4β2-nAChR function were evaluated in vitro. Specifically, whole-cell patch-clamp recording technique was employed in α4β2-nAChRs transfected with a human SH-EP1 cell-line. FIG. 1A provides graphs illustrating the effects of a 1 min pre-treatment of 30 μM /-THP, d/-THB or /-SPD on 1 mM ACh-induced current in SH-EP1 cell line.
Thus, when THPBs are co-applied with an agonist, it affects receptor function after agonist opens channels.
(§1) The effects of THB-induced inhibition on the α4β2-nAChR function were evaluating using human α4β2-nAChRs (transfected to SH-EP1 cells) and rat α4β2-nAChRs natively expressed in VTA DA neurons. The 30 μM THB (without pretreatment) inhibited both types (human and rat) of α4β2-nAChR function, and compared to peak current, the steady-state current portion was more sensitive to THB (FIGS. 3A-3C).
The effect of different concentrations of THB on 1 mM ACh-induced whole-cell currents were further examined in human α4β2-nAChRs in SH-EP1 cells. […] The steady-state current was more sensitive to THB than the peak current.
FIG. 9A provides a graph of traces of co-application of THB6 on ACh-induced current. FIG. 9B provides a graph of traces of the effect of 1 min pretreatment of THB6 on ACh-induced current. […] Each bar of the bar graph presented in FIG. 9C represents the mean from 4 cells and vertical bars indicate +Se. A ^“*” was given to indicate p<0.05, while a ^“***” was given to indicate p<0.001 in FIG. 9C. Data was analyzed with One-Way ANOVA.
A dosage containing 100 μM THB6 compound was evaluated on human and mouse α4β2-nAChR-mediated currents. FIG. 10A provides a graph of traces of ACh-induced whole-cell currents in human α4β2-nAChRs transfected in human SH-EP1 cells. FIG. 10B provides a graph of traces of ACh-induced whole-cell currents in mouse α4β2-nAChRs transfected in VTA dopamine neurons. […] Each bar in the bar graph of FIG. 10C represents the mean from 4 cells and vertical bars indicate +SE. A ^“*” was given to indicate p<0.05. A ^“***” was given to indicate p<0.001 in FIG. 9C. Data was analyzed with One-Way ANOVA.

mouse α4β2-nAChRs = target: T2, mouse α4β2-nAChRs (Mus musculus, UniProt O70174+Q9ERK7); experiment: ACh-induced whole-cell currents of mouse α4β2-nAChRs in VTA dopamine neurons; type: cell-based; settings: 100 μM
T2 construct: expressed in transfected cells; host or cells: VTA dopamine neurons
Method: A dosage containing 100 μM THB6 compound was evaluated on human and mouse α4β2-nAChR-mediated currents. FIG. 10A provides a graph of traces of ACh-induced whole-cell currents in human α4β2-nAChRs transfected in human SH-EP1 cells. FIG. 10B provides a graph of traces of ACh-induced whole-cell currents in mouse α4β2-nAChRs transfected in VTA dopamine neurons. […] FIGS. 10C and 10D provide bar graphs showing the statistic result that THB6 inhibits both peak and steady-state compounds of ACh-induced currents. Each bar in the bar graph of FIG. 10C represents the mean from 4 cells and vertical bars indicate +SE. A ^“*” was given to indicate p<0.05. A ^“***” was given to indicate p<0.001 in FIG. 9C. Data was analyzed with One-Way ANOVA.

VTA DA neurons [2] = experiment: Action potential firing in mouse VTA slices, cell-attached patch recording; type: cell-based
Method: Based on the evaluation of a dosage containing THB6 compounds on VTA slices, it was determined that THB6 prevents nicotine-induced firing rate increase in VTA DA neurons. […] FIG. 11B is a bar graph showing the statistical result of the normalized firing rate of THB6 compounds.

VTA DA neurons [3] = experiment: Extracellular single unit recording of VTA DA neuron firing in anesthetized mice; type: in vivo, mouse
Method: The effect of systemic injection of THB6 on mouse VTA DA neuron firing was evaluated by applying 10 mg/kg via an IV to anesthetized mice and extracellular single unit recordings were performed. FIG. 12A provides an image of the VTA slice, showing the recording electrode track and recording site after the experiment. The location of the recording electrode track is depicted in FIG. 12B.

mice = experiment: Mouse locomotor activity after systemic injection; type: in vivo
From the text: Systemic injection of dosages containing THB6 to mice and the mice's locomotive activity was studied.

human α4β2-nAChR [4] = target: T1, human α4β2-nAChR; experiment: 3H-epibatidine (H-EBDN) binding and binding competition on heterologously expressed α4β2-nAChR; settings: FIG. 2A
human α4β2-nAChR [5] = target: T1, human α4β2-nAChR; experiment: 86Rb+ efflux assay, carbachol-induced response, heterologously expressed α4β2-nAChR; type: cell-based
rat α4β2-nAChRs = target: T3, rat α4β2-nAChRs (Rattus norvegicus, UniProt P09483+P12390); experiment: Whole-cell currents of rat α4β2-nAChRs natively expressed in VTA DA neurons; type: cell-based; settings: 30 μM, without pretreatment
T3 construct: rat α4β2-nAChRs natively expressed in VTA DA neurons; endogenous in cells; host or cells: rat VTA dopamine neurons
Method: as §1

VTA DA neurons [6] = experiment: In vivo VTA DA neuronal firing in anesthetized rats; set-up: species or system rat
Method: It was tested whether systemic injection of THB affected VTA DA neuron firing. As shown in FIGS. 6A-6C, injection of THB (1 mg/kg, i.v.) increased VTA DA neuron firing rate, bursting fraction (FIG. 6A), and slow oscillations (FIGS. 6B-6D). […] THB appears to eliminate nicotinic effect via its blockade of nAChRs. Therefore, the actions of THB are consistent with the double target hypothesis that THB blocks nAChRs (especially α4β2-nAChRs) and enhances DA release from VTA to DA neuronal targets.

VTA DA neurons [7] = experiment: Miniature EPSCs in VTA DA neuron, patch-clamp whole-cell recording in VTA slice; type: cell-based
Method: Thus, the effect of /-THP on this nicotine-induced EPSC enhancement was studied. […] Co-application of 10 μM /-THP abolished nicotine-induced enhancement of mEPSCs (see, FIGS. 5A and 5C).

male C57BL/6 mice = experiment: Nicotine-induced conditioned place preference (CPP); type: in vivo, mouse
Method: A conventional biased CPP was performed on male C57BL/6 mice. Mice were put into two-compartment CPP apparatus (Med Associate Inc. VT) for accommodation once (20 min) a day for 3 days and for monitoring the preference to any specific side of compartment. Mice were divided into 3 groups (5 mice per group) and received 2 training sessions per day for 4 days.
When the mouse received a saline injection, it was placed into the opposite side for 20 min. […] Alternatively, the mice of the second group received saline injection and placed into the opposite side. The third group of mice (the I-THP only group) received /-THP i.p. injection (10 mg/Kg) and were placed into the least preferred side for 20 min. Alternatively, the mice received a saline injection and were placed into the opposite side.
On the 5th day, mice were tested for place preference by allowing free access to both conditioning compartments for 20 minutes. The foregoing 4-day training session was repeated on the 6th day. Mice of group 1 received their treatments without change. […] Alternatively, the mice of group 2 received a saline injection and then received a saline injection 5 min later. After the saline injection, the mice of group 2 were placed into the opposite chamber for 4 days. On the 10th day, the mice were tested for place preference for 20 min (See, FIG. 8).

[8] = 1 mg/kg, i.v., anesthetized rats

COc1ccc2c(c1OC)CN1CCc3cc4oc(=O)oc4cc3C1C2 (centres unmarked) [THB6]
peak component of ACh-induced currents (human α4β2-nAChR [1]; 30 μM, with and without 1 min pretreatment, FIG. 9C): inhibiting | peak and steady-state components of ACh-induced currents, human α4β2-nAChRs (human α4β2-nAChR [1]; 100 μM, SH-EP1 cells): inhibits | peak and steady-state components of ACh-induced currents, mouse α4β2-nAChRs (mouse α4β2-nAChRs): inhibits | DA neuronal firing, compound alone (VTA DA neurons [2]): did not affect | nicotine-induced firing increase (VTA DA neurons [2]): prevented | neuronal firing rate, compound alone (VTA DA neurons [3]; 10 mg/kg IV, anesthetized mice): did not affect | nicotine-induced increase of firing rate (VTA DA neurons [3]; 10 mg/kg IV, anesthetized mice): prevented | nicotine-induced increase of locomotor activity (mice; pretreatment): prevented | locomotor activity, compound alone (mice; systemic injection): did not alter

COc1ccc2c(c1OC)CN1CCc3cc4c(cc3C1C2)OCO4 (centres unmarked) [THB, tetrahydroberberine]
ACh-induced currents, peak current component (human α4β2-nAChR [1]; SH-EP1 cells): only mildly reduced | ACh-induced currents, steady-state component (human α4β2-nAChR [1]; SH-EP1 cells): suppressed | 1 mM ACh-induced whole-cell currents (human α4β2-nAChR [1]; 30 μM, SH-EP1 cells): dramatically eliminated | human α4β2-nAChR function (ACh-induced currents) (human α4β2-nAChR [1]; 30 μM, without pretreatment): inhibited | IC50 (human α4β2-nAChR [1]; IC50 value of Ip (peak current), 1 mM ACh-induced whole-cell currents, SH-EP1 cells): 2.2 µM | IC50 (human α4β2-nAChR [1]; IC50 value of Is (steady-state current), 1 mM ACh-induced whole-cell currents, SH-EP1 cells): 37 µM | affinity in H-EBDN binding competition (human α4β2-nAChR [4]): high affinity | IC50 (human α4β2-nAChR [5]): 7 µM | rat α4β2-nAChR function (ACh-induced currents) (rat α4β2-nAChRs): inhibited | VTA DA neuron bursting fraction (VTA DA neurons [6]; [8]): increased | VTA DA neuron firing rate (VTA DA neurons [6]; [8]): increased | VTA DA neuron slow oscillations (VTA DA neurons [6]; [8]): increased | effect of nicotine on VTA DA firing rate and bursting fraction after THB (VTA DA neurons [6]; nicotine 0.5 mg/kg i.v. 5 min after THB injection): failed to increase

/-stepholidine [/-SPD]
ACh-induced currents, peak current component (human α4β2-nAChR [1]; SH-EP1 cells): only mildly reduced | ACh-induced currents, steady-state component (human α4β2-nAChR [1]; SH-EP1 cells): suppressed | 1 mM ACh-induced whole-cell currents (human α4β2-nAChR [1]; 30 μM, SH-EP1 cells): dramatically eliminated | affinity in H-EBDN binding competition (human α4β2-nAChR [4]): lower affinity | IC50 (human α4β2-nAChR [5]; FIG. 2B, read-out: IC50 value, carbachol-induced 86Rb+ efflux response): 30 µM

CN1CCCC1c1cccnc1 (centres unmarked) [nicotine]
mEPSC amplitude (VTA DA neurons [7]; FIG. 5D): did not affect | mEPSC frequency (VTA DA neurons [7]; bath application of 1 μM): significantly increased | conditioned place preference (male C57BL/6 mice; 1.5 mg/Kg): induced significant CPP | neuronal firing rate at 2 minutes after injection (VTA DA neurons [3]; systemic injection, back to normal level after 8 minutes): increases

COc1cc2c(cc1OC)[C@@H]1Cc3ccc(OC)c(OC)c3CN1CC2 [/-THP, /-tetrahydropalmatine]
ACh-induced currents, peak current component (human α4β2-nAChR [1]; SH-EP1 cells): only mildly reduced | ACh-induced currents, steady-state component (human α4β2-nAChR [1]; SH-EP1 cells): suppressed | 1 mM ACh-induced whole-cell currents (human α4β2-nAChR [1]; 30 μM, SH-EP1 cells): dramatically eliminated | IC50 (human α4β2-nAChR [1]; co-application with 1 mM ACh, SH-EP1 cells, n=8, read-out: IC50 value for current net charge): 5.2 µM | Hill coefficient (human α4β2-nAChR [1]; co-application with 1 mM ACh, current net charge): 0.4 | nicotine-induced enhancement of mEPSCs (VTA DA neurons [7]; 10 μM co-applied with 1 μM nicotine): abolished | nicotine rewarding effects after CPP has been established (male C57BL/6 mice; 10 mg/Kg i.p. 5 min before nicotine 1.5 mg/Kg): counteracts
